From ChEMBL document CHEMBL5154882, “Discovery of 4-Hydroxyquinazoline Derivatives as Small Molecular BET/PARP1 Inhibitors That Induce Defective Homologous Recombination and Lead to Synthetic Lethality for Triple-Negative Breast Cancer Therapy” (J Med Chem, 2022)
Active and inactive are the calls of the source.

Key:
MDA-MB-231 [1] = assay: Antitumor activity against human MDA-MB-231 cells xenografted in BALB/c nude mouse assessed as tumor growth inhibition at 80 mg/kg incubated for 30 to 40 mins by Ki-67 staining based immunohistochemical analysis; assay type: functional, organism-based; conditions: time 30-40 min
MDA-MB-231 [2] = assay: Antitumor activity against human MDA-MB-231 cells xenografted in BALB/c nude mouse assessed as reduction in CtIp expression at 80 mg/kg incubated for 30 to 40 mins by immunohistochemical analysis; assay type: functional, organism-based; conditions: time 30-40 min
MDA-MB-231 [3] = assay: Antiproliferative activity against human MDA-MB-231 cells assessed as reduction in cell viability incubated for 72 hrs by MTT assay; assay type: functional, cell-based; conditions: MDA-MB-231, 72 h
MDA-MB-468 [4] = assay: Antiproliferative activity against human MDA-MB-468 cells assessed as reduction in cell viability incubated for 72 hrs by MTT assay; assay type: functional, cell-based; conditions: MDA-MB-468, 72 h
[5] = target: Bromodomain-containing protein 4 (Homo sapiens, UniProt O60885); assay: Inhibition of BRD4 (unknown origin) at 1 uM relative to control
[6] = target: T1, Poly [ADP-ribose] polymerase 1 (Homo sapiens, UniProt P09874); assay: Inhibition of PARP1 (unknown origin) at 1 uM relative to control
T1 sequence (P09874 whole entry): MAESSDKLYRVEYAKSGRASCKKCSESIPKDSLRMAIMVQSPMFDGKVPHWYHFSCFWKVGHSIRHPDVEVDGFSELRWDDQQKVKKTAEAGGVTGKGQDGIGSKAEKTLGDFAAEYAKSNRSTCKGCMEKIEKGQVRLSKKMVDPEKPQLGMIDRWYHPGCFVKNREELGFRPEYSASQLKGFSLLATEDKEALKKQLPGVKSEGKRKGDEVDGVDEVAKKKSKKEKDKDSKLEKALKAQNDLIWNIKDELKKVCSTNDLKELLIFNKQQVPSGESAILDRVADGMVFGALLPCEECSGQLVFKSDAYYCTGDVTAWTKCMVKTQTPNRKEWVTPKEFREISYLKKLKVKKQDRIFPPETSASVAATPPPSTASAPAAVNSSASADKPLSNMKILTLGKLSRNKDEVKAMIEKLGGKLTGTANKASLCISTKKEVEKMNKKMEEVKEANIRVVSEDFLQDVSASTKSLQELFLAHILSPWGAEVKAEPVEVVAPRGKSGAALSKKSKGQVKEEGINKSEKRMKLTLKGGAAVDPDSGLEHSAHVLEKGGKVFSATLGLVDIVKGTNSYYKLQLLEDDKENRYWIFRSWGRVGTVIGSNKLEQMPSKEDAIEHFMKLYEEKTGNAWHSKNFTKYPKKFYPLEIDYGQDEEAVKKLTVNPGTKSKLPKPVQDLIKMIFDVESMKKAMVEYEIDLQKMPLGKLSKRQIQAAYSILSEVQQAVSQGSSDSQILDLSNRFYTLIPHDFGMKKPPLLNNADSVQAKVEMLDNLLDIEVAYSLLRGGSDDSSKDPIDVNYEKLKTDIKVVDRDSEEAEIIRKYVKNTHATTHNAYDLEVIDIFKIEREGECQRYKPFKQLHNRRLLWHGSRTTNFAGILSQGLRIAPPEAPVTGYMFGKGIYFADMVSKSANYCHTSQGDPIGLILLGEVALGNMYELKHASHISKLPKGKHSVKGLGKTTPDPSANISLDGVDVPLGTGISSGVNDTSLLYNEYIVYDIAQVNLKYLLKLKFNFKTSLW

[7] = target: T1, Poly [ADP-ribose] polymerase 1; assay: Inhibition of PARP1 (unknown origin) using NAD+ as substrate incubated for 60 mins by ELISA
MDA-MB-468 [8] = assay: Antitumor activity against human MDA-MB-468 cells xenografted in BALB/c nude mouse model assessed as tumor growth inhibition at 80 mg/kg, ig administered daily for 16 days measured every 3 days relative to control; assay type: functional; conditions: MDA-MB-468, po, 384 h, time 16 day, read-out: TGI
[9] = Toxicity in BALB/c nude mouse xenografted with human MDA-MB-468 cells assessed as change in body weight at 40 to 80 mg/kg, ig administered daily for 16 days measured every 3 days; assay type: organism-based; conditions: in vivo, po, 384 h, dose 40-80 mg/kg, time 16 day
[10] = Toxicity in BALB/c nude mouse xenografted with human MDA-MB-468 cells assessed as change in body weight at 80 mg/kg, ig administered daily for 16 days measured every 3 days; assay type: organism-based; conditions: in vivo, po, 384 h, time 16 day
[11] = Toxicity in BALB/c nude mouse xenografted with human MDA-MB-468 cells assessed as death at 40 to 80 mg/kg, ig administered daily for 16 days measured every 3 days; assay type: organism-based; conditions: in vivo, po, 384 h, dose 40-80 mg/kg, time 16 day
[12] = Toxicity in BALB/c nude mouse xenografted with human MDA-MB-468 cells assessed as death at 80 mg/kg, ig administered daily for 16 days measured every 3 days; assay type: organism-based; conditions: in vivo, po, 384 h, time 16 day
[13] = Toxicity in BALB/c nude mouse xenografted with human MDA-MB-468 cells assessed as morphological changes in heart at 80 mg/kg, ig administered daily for 16 days measured every 3 days by hematoxyin-eosin staining based analysis; assay type: organism-based; conditions: in vivo, po, 384 h, time 16 day
[14] = Toxicity in BALB/c nude mouse xenografted with human MDA-MB-468 cells assessed as morphological changes in heart at 40 to 80 mg/kg, ig administered daily for 16 days measured every 3 days by hematoxyin-eosin staining based analysis; assay type: organism-based; conditions: in vivo, po, 384 h, dose 40-80 mg/kg, time 16 day
[15] = Toxicity in BALB/c nude mouse xenografted with human MDA-MB-468 cells assessed as morphological changes in liver at 80 mg/kg, ig administered daily for 16 days measured every 3 days by hematoxyin-eosin staining based analysis; assay type: organism-based; conditions: in vivo, po, 384 h, time 16 day
[16] = Toxicity in BALB/c nude mouse xenografted with human MDA-MB-468 cells assessed as morphological changes in liver at 40 to 80 mg/kg, ig administered daily for 16 days measured every 3 days by hematoxyin-eosin staining based analysis; assay type: organism-based; conditions: in vivo, po, 384 h, dose 40-80 mg/kg, time 16 day
[17] = Toxicity in BALB/c nude mouse xenografted with human MDA-MB-468 cells assessed as morphological changes in spleen at 80 mg/kg, ig administered daily for 16 days measured every 3 days by hematoxyin-eosin staining based analysis; assay type: organism-based; conditions: in vivo, po, 384 h, time 16 day
[18] = Toxicity in BALB/c nude mouse xenografted with human MDA-MB-468 cells assessed as morphological changes in spleen at 40 to 80 mg/kg, ig administered daily for 16 days measured every 3 days by hematoxyin-eosin staining based analysis; assay type: organism-based; conditions: in vivo, po, 384 h, dose 40-80 mg/kg, time 16 day
[19] = Toxicity in BALB/c nude mouse xenografted with human MDA-MB-468 cells assessed as morphological changes in lung at 80 mg/kg, ig administered daily for 16 days measured every 3 days by hematoxyin-eosin staining based analysis; assay type: organism-based; conditions: in vivo, po, 384 h, time 16 day
[20] = Toxicity in BALB/c nude mouse xenografted with human MDA-MB-468 cells assessed as morphological changes in lung at 40 to 80 mg/kg, ig administered daily for 16 days measured every 3 days by hematoxyin-eosin staining based analysis; assay type: organism-based; conditions: in vivo, po, 384 h, dose 40-80 mg/kg, time 16 day
[21] = Toxicity in BALB/c nude mouse xenografted with human MDA-MB-468 cells assessed as morphological changes in kidney at 80 mg/kg, ig administered daily for 16 days measured every 3 days by hematoxyin-eosin staining based analysis; assay type: organism-based; conditions: in vivo, po, 384 h, time 16 day
[22] = Toxicity in BALB/c nude mouse xenografted with human MDA-MB-468 cells assessed as morphological changes in kidney at 40 to 80 mg/kg, ig administered daily for 16 days measured every 3 days by hematoxyin-eosin staining based analysis; assay type: organism-based; conditions: in vivo, po, 384 h, dose 40-80 mg/kg, time 16 day
MDA-MB-231 [23] = assay: Antitumor activity against human MDA-MB-231 cells xenografted in BALB/c nude mouse assessed as reduction in c-Myc expression at 80 mg/kg incubated for 30 to 40 mins by immunohistochemical analysis; assay type: functional, organism-based; conditions: time 30-40 min
MDA-MB-231 [24] = assay: Antitumor activity against human MDA-MB-231 cells xenografted in BALB/c nude mouse assessed as reduction in PAR expression at 80 mg/kg incubated for 30 to 40 mins by immunohistochemical analysis; assay type: functional, organism-based; conditions: time 30-40 min
MDA-MB-231 [25] = assay: Antitumor activity against human MDA-MB-231 cells xenografted in BALB/c nude mouse assessed as reduction in Rad51 expression at 80 mg/kg incubated for 30 to 40 mins by immunohistochemical analysis; assay type: functional, organism-based; conditions: time 30-40 min
MDA-MB-231 [26] = assay: Antitumor activity against human MDA-MB-231 cells xenografted in BALB/c nude mouse assessed as downregulation of CtIP at 80 mg/kg by Western blot analysis; assay type: functional, organism-based
MDA-MB-231 [27] = assay: Antitumor activity against human MDA-MB-231 cells xenografted in BALB/c nude mouse assessed as downregulation of c-Myc at 80 mg/kg by Western blot analysis; assay type: functional, organism-based
MDA-MB-231 [28] = assay: Antitumor activity against human MDA-MB-231 cells xenografted in BALB/c nude mouse assessed as downregulation of PAR at 80 mg/kg by Western blot analysis; assay type: functional, organism-based
MDA-MB-231 [29] = assay: Antitumor activity against human MDA-MB-231 cells xenografted in BALB/c nude mouse assessed as downregulation of Rad51 at 80 mg/kg by Western blot analysis; assay type: functional, organism-based
MDA-MB-468 [30] = assay: Cell cycle arrest in human MDA-MB-468 cells assessed as accumulation at G0/G1 phase incubated for 72 hrs in presence of olaparib by propidium iodide staining-based flow cytometry analysis (reference value: 61.4%); assay type: functional
MDA-MB-468 [31] = assay: Cell cycle arrest in human MDA-MB-468 cells assessed as accumulation at S phase incubated for 72 hrs in presence of olaparib by propidium iodide staining-based flow cytometry analysis (reference value: 21.1%); assay type: functional
MDA-MB-468 [32] = assay: Cell cycle arrest in human MDA-MB-468 cells assessed as accumulation at S phase incubated for 72 hrs in presence of olaparib by propidium iodide staining-based flow cytometry analysis (Rvb=16.1%); assay type: functional
MDA-MB-468 [33] = assay: Induction of apoptosis in human MDA-MB-468 cells assessed as early apoptotic cells at 1 uM incubated for 72 hrs in presence of olaparib by annexin V/propidium iodide staining-based flow cytometry analysis (reference value: 4.07%); assay type: functional
MDA-MB-468 [34] = assay: Induction of apoptosis in human MDA-MB-468 cells assessed as late apoptotic cells at 1 uM incubated for 72 hrs in presence of olaparib by annexin V/propidium iodide staining-based flow cytometry analysis (reference value: 1.34%); assay type: functional
MDA-MB-468 [35] = assay: Induction of apoptosis in human MDA-MB-468 cells assessed as downregulation of Bcl-2 protein level incubated for 72 hrs in presence of olaparib by Western blot analysis; assay type: functional, cell-based
MDA-MB-468 [36] = assay: Induction of apoptosis in human MDA-MB-468 cells assessed as up-regulation of Bax protein level at incubated for 72 hrs in presence of olaparib by Western blot analysis; assay type: functional, cell-based
MDA-MB-468 [37] = assay: Induction of apoptosis in human MDA-MB-468 cells assessed as up-regulation of cleaved caspase 3 protein level incubated for 72 hrs in presence of olaparib by Western blot analysis; assay type: functional, cell-based
MDA-MB-468 [38] = assay: Induction of DNA damage in human MDA-MB-468 cells assessed as up-regulation of gammaH2AX expression level at 1 uM incubated for 60 mins by DAPI staining based immunofluorescence assay; assay type: functional, cell-based
MDA-MB-468 [39] = assay: Induction of DNA damage in human MDA-MB-468 cells assessed as up-regulation of gammaH2AX expression level at 1 uM in presence of olaparib by DAPI staining based immunofluorescence assay; assay type: functional, cell-based
MDA-MB-231 [40] = assay: Induction of DNA damage in human MDA-MB-231 cells assessed as increase in tail DNA measured at 1 uM after 3 days by comet assay; assay type: functional, cell-based; conditions: time 3.0 day
MDA-MB-231 [41] = assay: Induction of DNA damage in human MDA-MB-231 cells assessed as increase in tail DNA at 1 uM measured after 3 days in presence of olaparib by comet assay; assay type: functional, cell-based; conditions: time 3.0 day
MDA-MB-468 [42] = assay: Synergistic antiproliferative activity against human MDA-MB-468 cells at compound to Olaparib ratio of 1:3; assay type: functional, cell-based

COc1cc(OC)c2c(=O)[nH]c(-c3cc(C)c(OCCOc4ccccc4C(N)=O)c(C)c3)nc2c1
15.6 µM: IC50 (MDA-MB-231 [3])
62.5%: inhibition in vivo at 80 mg/kg (MDA-MB-468 [8])
Non-Toxic: Activity [9] | Activity [10] | Activity [11] | Activity [12] | Activity [13] | Activity [14] | Activity [15] | Activity [16] | Activity [17] | Activity [18] | Activity [19] | Activity [20] | Activity [21] | Activity [22]
active: Activity (MDA-MB-231 [1]) | Activity (MDA-MB-231 [2]) | Activity (MDA-MB-231 [23]) | Activity (MDA-MB-231 [24]) | Activity (MDA-MB-231 [25]) | Activity (MDA-MB-231 [26]) | Activity (MDA-MB-231 [27]) | Activity (MDA-MB-231 [28]) | Activity (MDA-MB-231 [29])
6.42 µM: IC50 (MDA-MB-468 [4])
66.2%: inhibition [5]
35.9%: inhibition [6]
0.0046 µM: IC50 [7]

Cc1sc2c(c1C)C(c1ccc(Cl)cc1)=NC(CC(=O)OC(C)(C)C)c1nnc(C)n1-2 (configuration not stated)
58.9%: Activity (MDA-MB-468 [30])
27.9%: Activity (MDA-MB-468 [31])
12.8%: Activity (MDA-MB-468 [32])
30.72%: Activity (MDA-MB-468 [33])
7.3%: Activity (MDA-MB-468 [34])
active: Activity (MDA-MB-468 [35]) | Activity (MDA-MB-468 [36]) | Activity (MDA-MB-468 [37]) | Activity (MDA-MB-468 [38]) | Activity (MDA-MB-468 [39]) | Activity (MDA-MB-231 [40]) | Activity (MDA-MB-231 [41]) | Activity (MDA-MB-468 [42])
